Measured values as given in PMC4411481, “Cyclic nucleotide binding and structural changes in the isolated GAF domain of Anabaena adenylyl cyclase, CyaB2” (PeerJ, 2015).
Like-named read-outs stand apart in the source and are kept apart here.

Experiments:
[1] = tested on: GAFb sensor (GFP2-GAFb-Rluc); assay: In vitro BRET assay, GAFb sensor; type: biochemical, Anabaena sp. PCC 7120; details: cell lysate, 1 mM cNMP, 37 °C 10 min
[2] = tested on: T293A mutant GAFb domain of CyaB2; assay: Cyclic nucleotide binding assay, T293A mutant GAFb; parameters: species or system Anabaena sp. PCC 7120
[3] = biological target: T1, isolated GAFb domain of CyaB2 (residues Leu 270 to Leu 431, GST fusion) (Nostoc sp. PCC 7120 (Anabaena sp. PCC 7120), UniProt P94182); assay: Cyclic nucleotide binding assay (3H-cAMP competition), GST-GAFb
T1 sequence (P94182 270-431): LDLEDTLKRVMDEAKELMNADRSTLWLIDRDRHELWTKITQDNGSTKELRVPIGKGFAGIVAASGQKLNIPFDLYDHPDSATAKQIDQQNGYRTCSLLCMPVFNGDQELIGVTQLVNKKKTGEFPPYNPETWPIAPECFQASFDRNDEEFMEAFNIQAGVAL

[4] = tested on: GAFab sensor (GFP2-GAFab-Rluc); assay: In vitro BRET assay, GAFab sensor; type: biochemical, Anabaena sp. PCC 7120; details: cell lysate, 1 mM cNMP
[5] = tested on: tandem GAFab domains of CyaB2 (residues S77 to L431, GST fusion); assay: biochemical; type: binding, Anabaena sp. PCC 7120; details: tandem GAFab vs isolated GAFb
[6] = biological target: T2, tandem GAFab domains of CyaB2 (residues S77 to L431, GST fusion) (Nostoc sp. PCC 7120 (Anabaena sp. PCC 7120), UniProt P94182); assay: biochemical; type: binding
T2 sequence (P94182 77-431): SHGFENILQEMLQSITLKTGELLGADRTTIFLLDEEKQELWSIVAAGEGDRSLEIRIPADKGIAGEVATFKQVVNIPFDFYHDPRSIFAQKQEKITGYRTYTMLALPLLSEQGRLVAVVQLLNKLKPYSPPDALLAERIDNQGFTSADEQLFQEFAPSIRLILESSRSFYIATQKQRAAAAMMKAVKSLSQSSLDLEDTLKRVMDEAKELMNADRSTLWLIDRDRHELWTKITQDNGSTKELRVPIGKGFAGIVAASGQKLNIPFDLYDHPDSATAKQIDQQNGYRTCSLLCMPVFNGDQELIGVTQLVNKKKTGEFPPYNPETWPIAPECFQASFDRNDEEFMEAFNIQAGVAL

[7] = tested on: NterGAFab sensor (GFP2-NterGAFab-Rluc); assay: In vitro BRET assay, NterGAFab sensor; type: biochemical, Anabaena sp. PCC 7120; details: cell lysate, 1 mM cNMP
[8] = tested on: I308A mutant GAFb domain of CyaB2; type: binding, Anabaena sp. PCC 7120
PDE5 GAFa(F163A) sensor = biological target: T3, PDE5 GAFa(F163A) sensor (Homo sapiens, UniProt O76074, F205A); assay: In vitro BRET assay, PDE5 GAFa(F163A) sensor; type: biochemical; details: cell lysate, 1 mM cNMP, 37 °C 10 min
T3 construct: We used the F163A mutant GAFa domain of PDE5; expressed in transfected cells; host or cells: HEK293T lysate
T3 sequence (O76074 148-315 F205A): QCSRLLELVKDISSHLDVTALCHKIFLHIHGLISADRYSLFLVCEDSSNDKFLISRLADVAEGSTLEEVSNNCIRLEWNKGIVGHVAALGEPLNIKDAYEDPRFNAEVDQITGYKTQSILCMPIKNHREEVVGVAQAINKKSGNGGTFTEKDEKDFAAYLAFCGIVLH

HEK293T cells = assay: Intracellular cNMP estimation by radioimmunoassay; type: cell-based, Human; details: 100 µM forskolin, 5 min
Description: Intracellular levels of cyclic nucleotide monophosphates (cNMP) were measured from the cells used for BRET measurements, or […] transfected and treated cells. Cells were lysed in 0.1 N HCl and cNMP was measured by radioimmunoassay as described earlier ([Bakre, […], 2000]).

[9] = tested on: HEK293T cells expressing the GAFb sensor; assay: Cellular BRET assay, GAFb sensor; type: cell-based, Human; details: 100 µM; forskolin 5 min, SNP 2 min, 37 °C
[10] = tested on: CyaB1-CyaB2 fusion protein; details: read-out: EC50, cAMP-mediated activation of a related adenylyl cyclase domain; ref Bruder et al., 2005; cited from earlier work

Row | Structure (SMILES) | change in BRET ratio [1] | change in affinity vs wild type GAFb [2] | IC50 ([3]; isolated GAFb, ∼1 nM 3H-cAMP) [µM] | change in BRET [4] | fold lower affinity compared to the isolated GAFb domain [5] [fold] | IC50 ([6]; tandem GAFab, ∼1 nM 3H-cAMP, read-out: IC50, competition with 3H-cAMP binding) [µM] | change in BRET [7] | change in affinity vs wild type GAFb [8] | change in BRET ratio (PDE5 GAFa(F163A) sensor) | intracellular levels of cAMP (HEK293T cells) | change in BRET ratios in live cells [9] | Kd [3] [µM] | fold higher affinity than the isolated GAFb domain [5] [fold] | IC50 [6] [µM] | EC50 [10] [µM]
1 | Nc1nc2c(ncn2[C@@H]2O[C@@H]3COP(=O)(O)O[C@H]3[C@H]2O)c(=O)[nH]1 [cGMP, guanosine 3′, 5′—cyclic monophosphate] | no change in the BRET ratio | reduction in the affinity | 7.6 ± 1.9 | did not result in a significant alteration | 348 | 2650 | did not result in a significant alteration | remained unaltered | large increase in the BRET ratio |  |  |  |  |  | 
2 | C=C[C@@]1(C)CC(=O)[C@]2(O)[C@@]3(C)[C@@H](O)CCC(C)(C)[C@@H]3[C@H](O)[C@H](OC(C)=O)[C@@]2(C)O1 [forskolin] |  |  |  |  |  |  |  |  |  | increased intracellular levels | no significant changes |  |  |  | 
3 | Nc1ncnc2c1ncn2[C@@H]1O[C@@H]2COP(=O)(O)O[C@H]2[C@H]1O [cAMP, adenosine 3′, 5′—cyclic monophosphate] | no change in the BRET ratio | no change in the affinity |  | did not result in a significant alteration |  |  | did not result in a significant alteration | significant reduction in the affinity | large increase in the BRET ratio |  |  | 0.8 ± 0.2 | 16 | 0.05 ± 0.02 | ~1.3
